SMILES strings stand for the structures.

The subject of assay [1] is Arachidonate 15-lipoxygenase B ALOX15B (Homo sapiens). Description: Inhibition of Lipoxygenase 15-LOX-2 at 10.0 µM in the Eurofins Panlabs Safety Screen. The settings on record: Compound concentration 10.0 uM.
Assay [2] deals with Cannabinoid receptor 1 (Homo sapiens) (UniProt P21554). The assay is described as follows: Inhibition of Cannabinoid CB1 at 10.0 µM in the Eurofins Panlabs Safety Screen. As to conditions: Compound concentration 10.0 uM.
Assay [3] has as its target Methionine aminopeptidase 2 (Homo sapiens, UniProt P50579). Description: Degradation in HUVEC cells (WB) Dmax (Western Blot (WB)). It is filed as functional, cell-based.
Assay [4] concerns the target Activin receptor type-1-like (Homo sapiens) (UniProt P37023). Description: Inhibition of ALK1(h) at 10.0 µM in the Eurofins Kinase panel. The settings on record: Compound concentration 10.0 uM.
Assay [5] addresses Beta-1 adrenergic receptor (Homo sapiens) (UniProt P08588). The settings on record: Compound concentration 10.0 uM.
The target of assay [6] is Megakaryocyte-associated tyrosine-protein kinase (Homo sapiens) (UniProt P42679). The assay is described as follows: Inhibition of MATK(h) at 10.0 µM in the Eurofins Kinase panel. The settings on record: Compound concentration 10.0 uM.
Chain of Megakaryocyte-associated tyrosine-protein kinase (Homo sapiens) (P42679 whole entry): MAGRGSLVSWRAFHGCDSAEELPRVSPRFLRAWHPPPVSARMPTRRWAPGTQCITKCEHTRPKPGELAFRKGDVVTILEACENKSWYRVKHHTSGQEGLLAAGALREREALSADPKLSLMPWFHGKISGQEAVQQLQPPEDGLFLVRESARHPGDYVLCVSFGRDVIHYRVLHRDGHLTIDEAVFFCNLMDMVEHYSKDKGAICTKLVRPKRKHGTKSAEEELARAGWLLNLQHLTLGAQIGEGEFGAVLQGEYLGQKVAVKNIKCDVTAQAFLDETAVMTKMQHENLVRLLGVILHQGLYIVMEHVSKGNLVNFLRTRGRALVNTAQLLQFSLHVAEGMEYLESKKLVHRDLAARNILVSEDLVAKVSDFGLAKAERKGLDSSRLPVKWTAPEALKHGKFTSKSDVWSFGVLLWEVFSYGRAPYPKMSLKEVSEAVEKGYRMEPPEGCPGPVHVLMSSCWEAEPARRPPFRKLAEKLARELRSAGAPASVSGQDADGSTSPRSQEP
The target of assay [7] is Serine/threonine-protein kinase pim-3 (Homo sapiens) (UniProt Q86V86). Description: Inhibition of Pim-3(h) at 10.0 µM in the Eurofins Kinase panel. The settings on record: Compound concentration 10.0 uM.
In assay [8] the target is Wee1-like protein kinase 2 (Homo sapiens) (UniProt P0C1S8). The assay is described as follows: Inhibition of Wee1B(h) at 10.0 µM in the Eurofins Kinase panel. The settings on record: Compound concentration 10.0 uM.
Assay [9] concerns the target Cyclin-dependent kinase-like 2 (Homo sapiens) (UniProt Q92772). The assay is described as follows: Inhibition of CDKL2(h) at 10.0 µM in the Eurofins Kinase panel. The settings on record: Compound concentration 10.0 uM.
Assay [10] addresses Interferon-induced, double-stranded RNA-activated protein kinase (Homo sapiens) (UniProt P19525). Description: Inhibition of PKR(h) at 10.0 µM in the Eurofins Kinase panel. As to conditions: Compound concentration 10.0 uM.
Assay [11] addresses SRSF protein kinase 3 (Homo sapiens) (UniProt Q9UPE1). The assay is described as follows: Inhibition of MSSK1(h) at 10.0 µM in the Eurofins Kinase panel. The settings on record: Compound concentration 10.0 uM.
In assay [12] the target is Glutamate NMDA receptor (Rattus norvegicus) (UniProt P35439+Q00959+Q00960+Q00961+Q62645+Q8VHN2+Q9R1M7). Description: Inhibition of Glutamate, NMDA, Glycine at 10.0 µM in the Eurofins Panlabs Safety Screen. It is filed as protein-complex assay. As to conditions: Compound concentration 10.0 uM.
Assay [13] has as its target Serine/threonine-protein kinase DCLK2 (Homo sapiens) (UniProt Q8N568). Description: Inhibition of DCAMKL2(h) at 10.0 µM in the Eurofins Kinase panel. The settings on record: Compound concentration 10.0 uM.
In assay [14] the target is Serine/threonine-protein kinase 38-like (Homo sapiens) (UniProt Q9Y2H1). Description: Inhibition of NDR2(h) at 10.0 µM in the Eurofins Kinase panel. As to conditions: Compound concentration 10.0 uM.
Chain of Serine/threonine-protein kinase 38-like (Homo sapiens) (Q9Y2H1 2-464 limits assumed): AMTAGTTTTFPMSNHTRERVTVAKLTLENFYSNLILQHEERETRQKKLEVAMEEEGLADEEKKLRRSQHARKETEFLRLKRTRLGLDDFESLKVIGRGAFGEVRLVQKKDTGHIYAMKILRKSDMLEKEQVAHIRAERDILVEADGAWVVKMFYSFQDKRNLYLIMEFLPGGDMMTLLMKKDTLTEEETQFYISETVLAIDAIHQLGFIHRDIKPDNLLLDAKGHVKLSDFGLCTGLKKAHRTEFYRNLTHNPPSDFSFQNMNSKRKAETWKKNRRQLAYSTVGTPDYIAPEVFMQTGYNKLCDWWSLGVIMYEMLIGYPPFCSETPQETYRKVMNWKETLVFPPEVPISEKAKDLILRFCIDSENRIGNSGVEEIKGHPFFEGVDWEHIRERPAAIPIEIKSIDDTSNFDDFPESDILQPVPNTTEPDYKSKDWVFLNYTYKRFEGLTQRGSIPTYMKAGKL
The target in assay [15] is RAC-beta serine/threonine-protein kinase (Homo sapiens) (UniProt P31751). Description: Inhibition of PKBbeta(h) at 10.0 µM in the Eurofins Kinase panel. The settings on record: Compound concentration 10.0 uM.
Chain of RAC-beta serine/threonine-protein kinase (Homo sapiens) (P31751 whole entry): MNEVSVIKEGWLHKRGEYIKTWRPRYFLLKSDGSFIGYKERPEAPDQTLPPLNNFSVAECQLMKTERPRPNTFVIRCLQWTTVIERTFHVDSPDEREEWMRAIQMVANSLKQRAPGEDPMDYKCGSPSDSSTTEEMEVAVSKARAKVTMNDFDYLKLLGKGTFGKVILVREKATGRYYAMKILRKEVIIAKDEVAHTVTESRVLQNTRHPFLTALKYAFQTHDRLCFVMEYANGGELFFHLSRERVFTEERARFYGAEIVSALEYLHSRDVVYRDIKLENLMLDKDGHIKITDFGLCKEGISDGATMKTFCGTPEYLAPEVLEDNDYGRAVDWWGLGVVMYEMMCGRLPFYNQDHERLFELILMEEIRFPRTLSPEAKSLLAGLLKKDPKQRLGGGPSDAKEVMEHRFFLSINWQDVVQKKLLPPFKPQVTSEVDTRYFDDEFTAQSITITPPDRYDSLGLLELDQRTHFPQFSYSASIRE
Assay [16] concerns the target Tribbles homolog 2 (Homo sapiens) (UniProt Q92519). The assay is described as follows: Inhibition of TRB2(h) at 10.0 µM in the Eurofins Kinase panel. The settings on record: Compound concentration 10.0 uM.
Assay [17] concerns the target Serine/threonine-protein kinase 26 (Homo sapiens) (UniProt Q9P289). The assay is described as follows: Inhibition of MST4(h) at 10.0 µM in the Eurofins Kinase panel. As to conditions: Compound concentration 10.0 uM.
Assay [18] deals with Serine/threonine-protein kinase ICK (Homo sapiens) (UniProt Q9UPZ9). Description: Inhibition of ICK(h) at 10.0 µM in the Eurofins Kinase panel. As to conditions: Compound concentration 10.0 uM.

Chain of Beta-1 adrenergic receptor (Homo sapiens) (P08588 whole entry, looked up): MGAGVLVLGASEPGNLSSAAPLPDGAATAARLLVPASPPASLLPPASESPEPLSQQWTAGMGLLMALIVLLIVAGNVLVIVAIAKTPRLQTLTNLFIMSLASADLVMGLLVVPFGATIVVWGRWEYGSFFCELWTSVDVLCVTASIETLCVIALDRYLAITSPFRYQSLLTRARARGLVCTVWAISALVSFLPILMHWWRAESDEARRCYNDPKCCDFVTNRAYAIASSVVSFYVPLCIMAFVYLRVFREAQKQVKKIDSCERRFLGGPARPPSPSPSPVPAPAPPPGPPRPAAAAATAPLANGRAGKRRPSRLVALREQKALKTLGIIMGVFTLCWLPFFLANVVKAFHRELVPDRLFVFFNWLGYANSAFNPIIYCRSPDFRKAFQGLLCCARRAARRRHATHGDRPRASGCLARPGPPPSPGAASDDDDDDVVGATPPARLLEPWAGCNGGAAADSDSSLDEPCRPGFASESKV
Chain of Cyclin-dependent kinase-like 2 (Homo sapiens) (Q92772 whole entry): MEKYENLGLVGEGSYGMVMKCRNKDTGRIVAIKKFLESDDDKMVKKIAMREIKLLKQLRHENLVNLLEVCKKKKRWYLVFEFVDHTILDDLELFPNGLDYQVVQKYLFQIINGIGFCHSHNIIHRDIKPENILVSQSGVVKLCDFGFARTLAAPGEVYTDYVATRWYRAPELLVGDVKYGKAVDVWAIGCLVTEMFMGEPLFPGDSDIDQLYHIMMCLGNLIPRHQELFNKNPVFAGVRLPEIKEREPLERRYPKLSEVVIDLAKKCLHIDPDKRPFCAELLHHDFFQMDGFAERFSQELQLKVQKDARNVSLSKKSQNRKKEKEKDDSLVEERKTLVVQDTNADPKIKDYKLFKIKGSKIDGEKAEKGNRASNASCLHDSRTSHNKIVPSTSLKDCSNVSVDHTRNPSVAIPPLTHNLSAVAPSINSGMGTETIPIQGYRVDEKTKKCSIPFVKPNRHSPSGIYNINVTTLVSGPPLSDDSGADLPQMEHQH
Chain of Activin receptor type-1-like (Homo sapiens) (P37023 whole entry): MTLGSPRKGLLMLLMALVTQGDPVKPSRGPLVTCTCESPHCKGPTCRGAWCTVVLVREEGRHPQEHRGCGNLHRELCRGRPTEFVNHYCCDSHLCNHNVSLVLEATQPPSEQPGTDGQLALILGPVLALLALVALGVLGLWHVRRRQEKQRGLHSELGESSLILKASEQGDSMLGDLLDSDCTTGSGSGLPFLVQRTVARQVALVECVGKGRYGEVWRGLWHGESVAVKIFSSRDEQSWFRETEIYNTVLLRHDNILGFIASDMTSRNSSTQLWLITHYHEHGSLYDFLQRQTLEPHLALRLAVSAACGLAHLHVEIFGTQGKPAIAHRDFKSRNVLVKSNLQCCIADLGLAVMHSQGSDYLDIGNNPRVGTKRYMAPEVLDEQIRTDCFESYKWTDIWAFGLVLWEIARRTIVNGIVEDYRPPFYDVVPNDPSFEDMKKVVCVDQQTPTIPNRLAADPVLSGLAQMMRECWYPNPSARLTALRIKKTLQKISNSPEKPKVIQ
Chain of Serine/threonine-protein kinase DCLK2 (Homo sapiens) (Q8N568 whole entry): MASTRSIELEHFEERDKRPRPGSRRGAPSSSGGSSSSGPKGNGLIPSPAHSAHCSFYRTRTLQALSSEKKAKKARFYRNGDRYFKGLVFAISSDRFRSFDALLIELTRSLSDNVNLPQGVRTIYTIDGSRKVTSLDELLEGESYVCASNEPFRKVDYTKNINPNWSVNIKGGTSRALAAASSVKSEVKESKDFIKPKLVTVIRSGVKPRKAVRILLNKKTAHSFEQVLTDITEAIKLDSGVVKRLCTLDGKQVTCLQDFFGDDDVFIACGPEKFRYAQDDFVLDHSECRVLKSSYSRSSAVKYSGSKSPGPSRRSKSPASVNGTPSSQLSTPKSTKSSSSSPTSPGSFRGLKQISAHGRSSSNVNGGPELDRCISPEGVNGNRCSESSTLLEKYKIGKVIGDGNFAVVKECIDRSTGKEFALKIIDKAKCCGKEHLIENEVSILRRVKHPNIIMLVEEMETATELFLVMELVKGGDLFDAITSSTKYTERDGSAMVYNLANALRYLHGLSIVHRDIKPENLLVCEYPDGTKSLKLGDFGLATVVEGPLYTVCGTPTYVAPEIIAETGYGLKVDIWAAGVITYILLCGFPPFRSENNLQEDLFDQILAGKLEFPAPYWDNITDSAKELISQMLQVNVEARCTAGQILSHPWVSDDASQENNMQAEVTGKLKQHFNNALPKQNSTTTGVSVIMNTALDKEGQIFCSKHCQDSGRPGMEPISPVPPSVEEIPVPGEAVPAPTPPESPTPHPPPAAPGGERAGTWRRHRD
Chain of SRSF protein kinase 3 (Homo sapiens) (Q9UPE1 whole entry): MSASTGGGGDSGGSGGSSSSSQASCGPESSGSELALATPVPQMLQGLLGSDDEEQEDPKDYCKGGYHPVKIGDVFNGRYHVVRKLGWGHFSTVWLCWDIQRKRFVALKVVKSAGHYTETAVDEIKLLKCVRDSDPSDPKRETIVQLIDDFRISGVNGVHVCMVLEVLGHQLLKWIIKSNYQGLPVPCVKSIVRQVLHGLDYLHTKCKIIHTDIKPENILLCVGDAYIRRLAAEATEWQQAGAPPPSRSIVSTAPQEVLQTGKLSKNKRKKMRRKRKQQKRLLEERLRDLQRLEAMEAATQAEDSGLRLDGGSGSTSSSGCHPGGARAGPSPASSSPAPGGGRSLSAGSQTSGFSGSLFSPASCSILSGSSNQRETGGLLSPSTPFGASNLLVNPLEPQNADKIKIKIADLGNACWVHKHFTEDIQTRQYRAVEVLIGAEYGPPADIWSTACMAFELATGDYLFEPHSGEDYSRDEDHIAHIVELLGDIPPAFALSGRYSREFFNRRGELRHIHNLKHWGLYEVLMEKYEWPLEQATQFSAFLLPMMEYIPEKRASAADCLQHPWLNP
Chain of Interferon-induced, double-stranded RNA-activated protein kinase (Homo sapiens) (P19525 whole entry): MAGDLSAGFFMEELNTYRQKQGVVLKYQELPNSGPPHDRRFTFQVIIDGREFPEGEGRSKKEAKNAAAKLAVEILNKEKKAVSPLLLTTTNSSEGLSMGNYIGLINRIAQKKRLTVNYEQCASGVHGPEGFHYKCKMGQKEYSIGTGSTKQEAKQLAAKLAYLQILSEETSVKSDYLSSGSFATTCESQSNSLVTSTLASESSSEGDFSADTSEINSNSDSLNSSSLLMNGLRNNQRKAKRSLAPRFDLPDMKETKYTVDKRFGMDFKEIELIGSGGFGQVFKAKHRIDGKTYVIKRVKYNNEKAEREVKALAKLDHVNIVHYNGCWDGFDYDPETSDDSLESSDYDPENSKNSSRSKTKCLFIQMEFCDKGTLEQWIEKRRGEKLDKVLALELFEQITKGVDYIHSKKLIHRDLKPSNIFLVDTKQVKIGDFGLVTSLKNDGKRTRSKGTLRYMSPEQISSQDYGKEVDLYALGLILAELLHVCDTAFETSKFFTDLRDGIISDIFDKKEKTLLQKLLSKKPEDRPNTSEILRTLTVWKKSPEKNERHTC

Take `O=C1CCC(N2Cc3cc(C4CCN(C(=O)CCCCCN5CCC(c6ccc(Oc7nn8cnnc8c8c7CCCC8)cc6)CC5)CC4)ccc3C2=O)C(=O)N1` (stereo not drawn): the inhibition in assay [1] was -1%; in [2], 1%; in assay [4], 11.5%; in [5], 0.81%; in [6], 19.7%; in assay [7], 10.3%. Also, the inhibition in assay [8] was found to be 10.3%. The DCmax in [3] is 94%.
With `O=C1NCCCC1N1Cc2cc(C3CCN(C(=O)CCCCCN4CCC(c5ccc(Oc6nn7cnnc7c7c6CCCC7)cc5)CC4)CC3)ccc2C1=O` (stereo not drawn), the inhibition is 17.6% in assay [9]; 10.3% in assay [10]; 12.1% in assay [11]; -6% in assay [12]; 12% in [13]; 14.4% in assay [14]. Also, the inhibition in [15] was 14.1%; in assay [16], 10.9%; in assay [17], 10.1%; in [18], 10.1%.

The record behind these values is ChEMBL document CHEMBL5463725, “Data for DCP probe BAY-277” (2023).
